{"source": "patent US20020049151A1", "about": "“Therapeutic approaches to diseases by suppression of the NURR subfamily of nuclear transcription factors” (priority 2000, published 2002)", "key": {"[1]": {"system": "human CRH promoter", "assay": "hCRH-CAT reporter, transient transfection in primary human synoviocytes", "format": "cell-based", "details": "-666/+111 hCRH-CAT; RA and PsA synoviocytes; 10 ng/ml IL-1β, IL-6, TNFα, 1 μM PGE2, MoCM; 12 h", "procedure": "To determine whether inflammatory mediators are capable of regulating the expression of the human CRH promoter a reporter construct was generated by cloning the proximal promoter region (−666/+111) (SEQ ID NO: 143) of the human CRH gene into the promoterless pBL3-chloramphenicol acetyl transferase (CAT) plasmid to create hCRH-CAT. Transcriptional regulation of the hCRH promoter was measured by transient transfection in primary human synoviocytes. […] Three individual RA and PsA synoviocyte cell lines were transiently transfected with 3 μg -666 /+111 hCRH-CAT reporter plasmid to monitor CRH promoter activity, maintained under normal conditions (Con), or exposed to 10 ng/ml IL-1β, IL-6, TNFα1 μM PGE2, MoCM or 25 μM FOR for 12 h. […] Representative CAT levels produced by transfected cells are illustrated in FIG. 2B.\nSynovial tissue was treated for 4 h with 1 mg/ml collagenase (type I; Worthington Biochemical, Freehold, N.J.) in RPMI at 37° C. in 5% CO2. Dissociated cells were plated in RPMI supplemented with 10% fetal calf serum (GibcoBRL, Paisley, UK), penicillin (100 U/ml), streptomycin (100 U/ml) and fungizone (0.25 μg/ml). […] Twenty-four hours before transfection, 1×10^6 synoviocyte cells were plated in 25 cm^2 dishes and allowed to attach. Endotoxin free-DNA ([…] CMV-β-galactosidase or 3 μg -666/+111 hCRH CAT (Murphy and Conneely, 1997) was added to 35 μl lipotaxi reagent (Stratagene, Cambridge, UK) in a volume of 900 μl RPMI (serum free) and incubated at room temperature for 30 min. RPMI (1.5 ml) was added to the transfection mixture, transferred onto the cells and incubated for 6 h at 37° C. in 5% CO2. An equal volume of media was added, and the cells were incubated overnight at 37° C. in 5% CO2. The DNA-lipotaxi containing media was replaced, and the cells were left untreated or treated with 10 ng/ml IL-1β, IL-6, TNFα, 1 μM PGE2 or MoCM and incubated for a further 24 h. Chloramphenicol acetyl transferase (CAT) levels were measured using a CAT ELISA (Boehringer Mannheim, Germany). Protein concentrations were determined by the Bradford assay (BioRad, Richmond, Calif.). For β-galactosidase assays cells were washed with cold phosphate buffered saline (PBS), fixed with cold 0.5% glutaraldehyde and washed twice with PBS before incubation with staining solution (1M MgCl2, 5M NaCL, 0.5M HEPES pH7.3, 30 mM potassium ferricyanide, 30 mM potassium ferrocyanide and 2% 5-bromo-4-chloro-3-indoyl-β-galactopyranoside) for 12 h at 37° C."}, "[2]": {"system": "NURR1 mRNA", "assay": "Northern blot of NURR1 mRNA in synovium explants", "format": "cell-based, human", "details": "RA and PsA synovium explants; CRH 10^−8 M; IL-6 10 ng/ml", "procedure": "To determine whether the NURR subfamily contribute to CRH signaling in a pathological context, freshly excised RA (FIG. 4A) and PsA synovium explants were incubated with CRH (10^−8 M) and examined for its ability to induce expression of NURR1 and NUR77 transcripts. […] Furthermore, analysis of synovium explants indicates higher endogenous and CRH-inducible NURR1 mRNA compared to NUR77 transcript levels.\n(§1) In FIG. 4 total RNA was extracted and northern blot analysis was performed. Filters were hybridized with a cDNA for NURR1 or NUR77 and also with GAPDH to control for loading and transfer. Synovial explants were left untreated [C] or incubated with 10^−8M CRH for the indicated times. (FIG. 4A) Confluent monolayers of primary synoviocytes were left untreated [C] or pretreated with 10^−8M dexamethasone (DEX) for 2 h prior to the addition of 25μM forskolin (FOR) or 20 ng/ml of phorbal myristic acetate (PMA). (FIG. 4B)\n(§2) For FIG. 6 each membrane was reprobed with a GAPDH cDNA to control for loading and transfer. NURR1 mRNA levels were measured by northern analysis using total RNA extracted from synoviocytes left untreated [C] or cultured for the time indicated with (A) TNFα (10 ng/ml) in the presence or absence of pre-treatment with 10^−8M dexamethasone (DEX). (B) IL-1β(10 ng/ml) in the presence or absence of pretreatment with 2 μM indomethacin (INDO) or 10^−8M DEX. (C) or synovial explants cultured with IL-6 (10 ng/ml). (D) 1 μM PGE2. (E) 25 μM forskolin (FOR) or […] for 1h in the absence or presence of 5 µg/ml cycloheximide (CHX).\n(§3) Total RNA was isolated from cultured primary synoviocytes or synovial explants. RNA was quantitated by UV absorption and 10 μg of total RNA were electrophoresed on a standard northern gel and transferred to nylon membrane (BioRad, Richmond, Calif.). NURR1 and NUR77 cDNA probes (Murphy and Conneely, 1997), spanning the amino terminal region to avoid cross-hybridization, were radiolabeled to a high specific activity using [α-^32P] dCTP and a random primer labeling system (Promega, Madison, Wis.). Blots were exposed to film at −80° C. using intensifying screens and autoradiographic intensity was quantitated using an imaging densitometer."}, "[3]": {"system": "NURR1 mRNA", "assay": "Northern blot of NURR1 mRNA in primary synoviocytes", "format": "cell-based, human", "details": "for NURR1 mRNA levels after stimulation: 25 μM forskolin, 20 ng/ml PMA, 10 ng/ml TNFα, IL-1β, IL-6, 1 μM PGE2, CRH", "procedure": "Regulation of gene expression by the protein kinase A and C pathways represent important signaling events in RA synoviocytes (Ben-Av et al., 1995; Crofford et al., 1994; Firestein and Manning, 1999). […] To investigate the involvement of the protein kinase C signaling pathways in NURR regulation, synoviocytes were treated with phorbal myristic acetate (PMA). […] In contrast, dexamethasone had little effect on forskolin- or PMA-induced NUR77 levels.\nas §1\nTherefore the pathological importance of the NURR transcription factors in inflammatory joint disease was further examined by determining the ability of pro-inflammatory agonists to regulate NURR transcript levels in primary synoviocytes and synovium explant tissue (FIG. 6).\nas §2\n(§4) Northern analysis of primary RA synoviocytes were untreated (lane 1) or treated for 1 hour with TNFα (lane 2), IL-1β (lane 3), and PGE2 (lane 4). TNFα and IL-1β were used at a concentration of 10 ng/mL and PGE2 was at a concentration of 10^-6 M.\nas §3"}, "[4]": {"system": "NOR1 mRNA", "assay": "Northern analysis of NOR1 mRNA in primary RA synoviocytes", "format": "cell-based, human", "details": "1 hour, TNFα 10 ng/mL, PGE2 10^-6 M, vs untreated", "procedure": "The pathological importance of the NURR transcription factors in inflammatory joint disease was further examined by determining the ability of proinflammatory agonists to regulate NOR1 transcript levels in primary synoviocytes. (FIG. 14). Expression levels of NOR1 and NURR1 mRNA increased compared to the untreated synoviocytes upon treatment with TNFα.\nas §4, §3"}, "[5]": {"system": "synoviocytes", "assay": "Synoviocyte morphological transformation (fibroblast-like to stellate)", "format": "cell-based, human", "details": "primary PsA synoviocytes, untreated vs TNFα"}}, "note": "“Also recorded” adds a separate entry of the source."}
{"compound": "IL-6: pro-inflammatory cytokine", "values": [{"measurement": "transcriptional activity of the hCRH promoter (CAT), fold", "setting": "[1]", "result": "3.2+/−1.9 fold"}, {"measurement": "NURR1 mRNA induction in synovium explants", "setting": "[2]", "result": "rapid and marked increase"}, {"measurement": "NURR1 mRNA levels after stimulation", "setting": "[3]", "result": "did not significantly induce"}]}
{"compound": "TNFα", "values": [{"measurement": "transcriptional activity of the hCRH promoter (CAT), fold", "setting": "[1]", "result": "15.6+/−1.9 fold"}, {"measurement": "NURR1 mRNA levels after stimulation", "setting": "[3]", "result": "rapid and marked increase; also recorded: increased"}, {"measurement": "NOR1 mRNA expression levels", "setting": "[4]", "result": "increased"}, {"measurement": "synoviocyte morphology after stimulation", "setting": "[5]", "result": "stellate shape"}]}
{"compound": "IL-1β: pro-inflammatory cytokine", "values": [{"measurement": "transcriptional activity of the hCRH promoter (CAT), fold", "setting": "[1]", "result": "17.1+/−3.1 fold"}, {"measurement": "NURR1 mRNA levels after stimulation", "setting": "[3]", "result": "rapid and marked increase"}]}
{"compound": "CCCCC[C@H](O)/C=C/[C@H]1[C@H](O)CC(=O)[C@@H]1C/C=C\\CCCC(=O)O", "note": "[PGE2, reference compound]", "values": [{"measurement": "transcriptional activity of the hCRH promoter (CAT), fold", "setting": "[1]", "result": "28.8+/−1.7 fold"}, {"measurement": "NURR1 mRNA levels after stimulation", "setting": "[3]", "result": "rapid and marked increase"}, {"measurement": "effect in stimulating NURR1 mRNA compared with the other agonists", "setting": "[3]; PGE2 1 μM, 10^-6 M", "result": "most potent and sustained effect"}, {"measurement": "NOR1 mRNA expression levels", "setting": "[4]", "result": "only a moderate increase"}]}
